Patent publication EP0268915A2, “Trifluoromethylcarbonyl derivatives” (BAYER AG, priority 1986, dated 1988)
Read-outs that look alike come from different tables or passages of the source.

Columns and labels:
Assay type in all cases: in vivo
[1] = tested on: Aphis fabae; experiment: Aphis test (systemic action, soil drench of bean plants); conditions: 96 h, read-out: Wirkung (Abtötung in %)
Procedure: Aphis-Test (systemische Wirkung)
(§1) Lösungsmittel: 7 Gewichtsteile Dimethylformamid Emulgator: 1 Gewichtsteil Alkylarylpolyglykolether
Zur Herstellung einer zweckmäßigen Wirkstoffzubereitung vermischt man 1 Gewichtsteil Wirkstoff mit der angegebenen Menge Lösungsmittel und der angegebenen Menge Emulgator und verdünnt das Konzentrat mit Wasser auf die gewünschte Konzentration.
Mit je 20 ml Wirkstoffzubereitung der gewünschten Konzentration werden Bohnenpflanzen (Vicia faba), die stark von der schwarzen Bohnenlaus (Aphis fabae) befallen sind, angegossen, so daß die Wirkstoffzubereitung in den Boden eindringt, ohne den Sproß zu benetzen. Der Wirkstoff wird von den Wurzeln aufgenommen und in den Sproß weitergeleitet.
Nach der gewünschten Zeit wird die Abtötung in % bestimmt. Dabei bedeutet 100 %, daß alle Blattläuse abgetötet wurden; 0 % bedeutet, daß keine Blattläuse abgetötet wurden.

[2] = tested on: Nephotettix cincticeps; experiment: Nephotettix test (rice seedlings dipped in the active compound preparation); conditions: for mortality at 0.0001 %: Nephotettix cincticeps, 144 h, read-out: Wirkung (Abtötung in %)
Source text: as §1
Zur Herstellung einer zweckmäßigen Wirkstoffzubereitung vermischt man 1 Gewichstteil Wirkstoff mit der angegebenen Menge Lösungsmittel und der angegebenen Menge Emulgator und verdünnt das Konzentrat mit Wasser auf die gewünschte Konzentration.
Reiskeimlinge (Oryza sativa) werden durch Tauchen in die Wirkstoffzubereitung der gewünschten Konzentration behandelt und mit der Grünen Reiszikade (Nephotettix cincticeps) besetzt, solange die Keimlinge noch feucht sind.
Nach der gewünschten Zeit wird die Abtötung in % bestimmt. Dabei bedeutet 100 %, daß alle Zikaden abgetötet wurden; 0 % bedeutet, daß keine Zikaden abgetötet wurden.

[3] = tested on: Lucilia cuprina resistent-Larven; experiment: Test with resistant Lucilia cuprina larvae; conditions: 24 h, Wirkstoffkonzentration 100 ppm, nach 24 Stunden, read-out: Abtötung
Source text: Test mit Lucilia cuprina resistent-Larven
Emulgator: 35 Gewichtsteile Ethylenglykolmonomethylether 35 Gewichtsteile Nonylphenolpolyglykolether
Zur Herstellung einer zweckmäßigen Wirkstoffzubereitung vermischt man drei Gewichtsteile Wirkstoff mit sieben Gewichtsteilen des oben angegebenen Gemisches und verdünnt das so erhaltene Konzentrat mit Wasser auf die jeweils gewünschte Konzentration.
Etwa 20 Lucilia cuprina res.-Larven werden in ein Teströhrchen gebracht, welches ca. 1 cm^3 Pferdefleisch und 0,5 ml der Wirkstoffzubereitung enthält. Nach 24 Stunden wird der Abtötungsgrad bestimmt.

[4] = tested on: Myzus persicae; experiment: Critical concentration test / root-systemic action, Myzus persicae; conditions: Wirkstoffkonzentration 20 ppm im Boden, Kohl (Brassica oleracea), Besatz nach 7 Tagen, Auswertung nach weiteren 2 Tagen; for mortality at 20 µg/mL: Myzus persicae, 48 h, read-out: wurzelsystemische Wirkung
Source text: Grenzkonzentrations-Test / Wurzelsystemische Wirkung Testinsekt: Myzus persicae Lösungsmittel: 3 Gewichtsteile Aceton Emulgator: 1 Gewichtsteil Alkylarylpolyglykolether
(§2) Zur Herstellung einer zweckmäßigen Wirkstoffzubereitung vermischt man 1 Gewichtsteil Wirkstoff mit der angegebenen Menge Lösungsmittel, gibt die angegebene Menge Emulgator zu und verdünnt das Konzentrat mit Wasser auf die gewünschte Konzentration.
(§3) Die Wirkstoffzubereitung wird innig mit Boden vermischt. Dabei spielt die Konzentration des Wirkstoffs in der Zubereitung praktisch keine Rolle, entscheidend ist allein die Wirkstoffgewichtsmenge pro Volumeneinheit Boden, welche in ppm (= mg/1) angegeben wird. Man füllt den behandelten Boden in Töpfe und bepflanzt diese mit Kohl (Brassica oleracea). Der Wirkstoff kann so von den Pflanzenwurzeln aus dem Boden aufgenommen und in die Blätter transportiert werden.
(§4) Für den Nachweis des wurzelsystemischen Effektes werden nach 7 Tagen ausschließlich die Blätter mit den obengenannten Testtieren besetzt. Nach weiteren 2 Tagen erfolgt die Auswertung durch Zählen oder Schätzen der toten Tiere. Aus den Abtötungszahlen wird die wurzelsystemische Wirkung des Wirkstoffs abgeleitet. Sie ist 100 %, wenn alle Testtiere abgetötet sind und 0 %, wenn noch genau so viele Testinsekten leben wie bei der unbehandelten Kontrolle.

[5] = tested on: Phaedon cochleariae-Larven; experiment: Critical concentration test / root-systemic action, Phaedon cochleariae larvae; conditions: Wirkstoffkonzentration 20 ppm im Boden, Kohl (Brassica oleracea), Besatz nach 7 Tagen, Auswertung nach weiteren 2 Tagen
Source text: Grenzkonzentrations-Test / Wurzelsystemische Wirkung Testinsekt: Phaedon cochleariae-Larven Lösungsmittel: 3 Gewichtsteile Aceton
Emulgator: 1 Gewichtsteil Alkylarylpolyglykolether
as §2, §3, §4

[6] = Wirkstoffkonzentration 0,01 %, nach 4 Tagen, Bohnenpflanzen (Vicia faba) angegossen, systemisch
[7] = Wirkstoffkonzentration 0,0001 %, nach 6 Tagen, Reiskeimlinge (Oryza sativa) getaucht

Row | SMILES | mortality at 0.01 % [1, 6] [%] | mortality at 100 µg/mL [3] [%] | mortality at 20 µg/mL [4] [%] | wurzelsystemische Wirkung [5] | wurzelsystemische Wirkung [4] | other results
1 | O=C(C(C(=O)C(F)(F)F)=C1NCCN1Cc1ccc(Cl)nc1)C(F)(F)F [Beispiel 5, 2-[(Di-trifluormethylcarbonyl)-methylen]-3-(6-chlor-pyrid-3-yl)-methylimidazolidin] | 100 | 100 | 100 |  |  | mortality at 0.0001 % [2, 7]: 100%
2 | O=[N+]([O-])C=C1NCCCS1 [Vergleichssubstanz (A), Tetrahydro-2-nitromethylen-2H-1,3-thiazin, reference compound] |  |  |  | keine Wirkung | keine Wirkung | mortality at 0.01 % [1]: 50%; mortality at 0.0001 % [2]: 20%
3 | O=C(C=C1NCCCN1Cc1ccc(Cl)nc1)C(F)(F)F [Beispiel 8] | 100 | 100 | 100 |  |  | mortality at 20 µg/mL ([5]; Phaedon, 48 h, read-out: wurzelsystemische Wirkung): 100%
4 | O=C(C(C(=O)C(F)(F)F)=C1NCCCN1Cc1ccc(Cl)nc1)C(F)(F)F [Beispiel 9] |  | 100 |  |  |  | 
5 | O=C(C=C1NCCN1Cc1ccc(Cl)nc1)C(F)(F)F [Beispiel 4, 1-(6-Chlor-pyrid-3-yl)-methyl-2-(trifluormethylcarbonylmethylen)-imidazolidin] | 100 | 100 | 100 |  |  | 
6 | O=C(C=C1SCCN1Cc1ccc(Cl)nc1)C(F)(F)F [Beispiel 3, 3-(6-Chlor-pyrid-3-yl)-methyl-2-(trifluormethylcarbonylmethylen)-1,3-thiazolidin] |  |  |  | 100% | 100% | Wirkung (Abtötung in %) [2, 7]: 90%
